In patent publication US20100298141A1, “SUBSTITUTED PYRIDINE N-OXIDE HERBICIDES” (E. I. DU PONT DE NEMOURS AND COMPANY, priority 2007, published 2010):

Tests used:
[1] = tested on: barnyardgrass; test: Test A pre-/postemergence greenhouse test; type: in vivo, Echinochloa crus-galli; details: for Plant response rating, Barnyardgrass: 0 to 100 scale where 0 is no effect and 100 is complete control; for Barnyardgrass plant response rating: 0 to 100 scale
Summary of the method: (§1)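 Pre: directed soil spray on seeded loam/sand. Post: foliar spray, plants 2–10 cm, 1–2 leaf stage, applied concurrently. Vehicle: non-phytotoxic solvent + surfactant. Greenhouse ~10 d; visual injury rating vs untreated controls.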

[2] = tested on: crabgrass; test: Test A pre-/postemergence greenhouse test; type: in vivo, Digitaria sanguinalis; details: for Plant response rating, Crabgrass, Large: 0 to 100 scale where 0 is no effect and 100 is complete control; for Crabgrass, Large plant response rating: 0 to 100 scale
Summary of the method: as §1

[3] = tested on: wheat; test: Test A pre-/postemergence greenhouse test; type: in vivo, Triticum aestivum; details: for Plant response rating, Wheat: 0 to 100 scale where 0 is no effect and 100 is complete control; for Wheat plant response rating: 0 to 100 scale
Summary of the method: as §1

[4] = tested on: corn; test: Test A pre-/postemergence greenhouse test; type: in vivo, Zea mays; details: for Plant response rating, Corn: 0 to 100 scale where 0 is no effect and 100 is complete control; for Corn plant response rating: 0 to 100 scale
Summary of the method: as §1

[5] = tested on: Italian ryegrass; test: Test C pre-/postemergence test; type: in vivo, Lolium multiflorum; details: for Plant response rating, Ryegrass, Italian: 31 g ai/ha, scale 0 to 100 (0 no effect, 100 complete control)
Summary of the method: (§2)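 Test chemicals were formulated with surfactant in a non-phytotoxic solvent and sprayed both on freshly planted seeds (preemergence) and on 1- to 4-leaf plants of 2–18 cm (postemergence). Flooded-paddy pots received compound directly into 3 cm of standing water, maintained for the test.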

[6] = tested on: Surinam grass; test: Test C pre-/postemergence test; type: in vivo, Brachiaria decumbens; details: for Plant response rating, Surinam Grass: 31 g ai/ha, scale 0 to 100 (0 no effect, 100 complete control)
Summary of the method: as §2

[7] = tested on: corn; test: Test C pre-/postemergence test; type: in vivo, Zea mays; details: for Plant response rating, Corn: 31 g ai/ha, scale 0 to 100 (0 no effect, 100 complete control)
Summary of the method: as §2

[8] = tested on: crabgrass; test: Test C pre-/postemergence test; type: in vivo, Digitaria sanguinalis; details: for Plant response rating, Crabgrass, Large: 31 g ai/ha, scale 0 to 100 (0 no effect, 100 complete control)
Summary of the method: as §2

[9] = tested on: giant foxtail; test: Test C pre-/postemergence test; type: in vivo, Setaria faberii; details: for Plant response rating, Foxtail, Giant: 31 g ai/ha, scale 0 to 100 (0 no effect, 100 complete control)
Summary of the method: as §2

[10] = tested on: Goosegrass; test: Test C pre-/postemergence test; type: in vivo, Eleusin indica; details: for Plant response rating, Goosegrass: 31 g ai/ha, scale 0 to 100 (0 no effect, 100 complete control)
Summary of the method: as §2

[11] = tested on: johnsongrass; test: Test C pre-/postemergence test; type: in vivo, Sorghum halepense; details: for Plant response rating, Johnsongrass: 31 g ai/ha, scale 0 to 100 (0 no effect, 100 complete control)
Summary of the method: as §2

[12] = tested on: morningglory; test: Test C pre-/postemergence test; type: in vivo, Ipomoea coccinea; details: for Plant response rating, Morningglory: 31 g ai/ha, scale 0 to 100 (0 no effect, 100 complete control)
Summary of the method: as §2

[13] = tested on: eastern black nightshade; test: Test C pre-/postemergence test; type: in vivo, Solanum ptycanthum; details: for Plant response rating, Nightshade: 31 g ai/ha, scale 0 to 100 (0 no effect, 100 complete control)
Summary of the method: as §2

[14] = tested on: pigweed; test: Test C pre-/postemergence test; type: in vivo, Amaranthus retroflexus; details: for Plant response rating, Pigweed: 31 g ai/ha, scale 0 to 100 (0 no effect, 100 complete control)
Summary of the method: as §2

[15] = tested on: common (oilseed) sunflower; test: Test C pre-/postemergence test; type: in vivo, Helianthus annuus; details: for Plant response rating, Sunflower: 31 g ai/ha, scale 0 to 100 (0 no effect, 100 complete control)
Summary of the method: as §2

[16] = tested on: velvetleaf; test: Test C pre-/postemergence test; type: in vivo, Abutilon theophrasti; details: for Plant response rating, Velvetleaf: 31 g ai/ha, scale 0 to 100 (0 no effect, 100 complete control)
Summary of the method: as §2

[17] = tested on: umbrella sedge; test: Test C flooded paddy test; type: in vivo, Cyperus difformis; details: Flood
Summary of the method: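 Greenhouse pots flooded to 3 cm above soil at time of treatment received compound via the water, which stayed at that level.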

[18] = Postemergence, 500 g ai/ha, 0 is no effect, 100 is complete control
[19] = Preemergence, 125 g ai/ha, 0 no effect, 100 complete control
[20] = Preemergence, 500 g ai/ha, 0 no effect, 100 complete control
[21] = 62 g ai/ha, Preemergence, scale 0 to 100
[22] = 125 g ai/ha, preemergence, scale 0 (no effect) to 100 (complete control)
[23] = preemergence, 250 g ai/ha, scale 0 (no effect) to 100 (complete control)
[24] = 62 g ai/ha, scale 0 to 100 (0 no effect, 100 complete control)
[25] = 250 g ai/ha, scale 0 to 100, 0 no effect, 100 complete control, 13 to 15 days

C#CCOc1c(CS(=O)(=O)c2cccc[n+]2[O-])c(C(F)(F)F)nn1C [Compound 103] was tested, and the “Plant response rating, Barnyardgrass” value ([1]; Postemergence, 125 g ai/ha) was 80, the “Barnyardgrass plant response rating” value [1, 18] was 90 and the “Barnyardgrass plant response rating” value [1, 19] was 90. The “Barnyardgrass plant response rating” value [1, 20] was 100, the “Plant response rating, Crabgrass, Large” value ([2]; Postemergence, 125 g ai/ha) was 70 and the “Crabgrass, Large plant response rating” value [2, 18] was 90. For the same molecule, the “Crabgrass, Large plant response rating” value [2, 19] was 70, the “Crabgrass, Large plant response rating” value [2, 20] was 100 and the “Plant response rating, Wheat” value ([3]; Postemergence, 125 g ai/ha) was 20. For the same molecule, the “Wheat plant response rating” value [3, 18] was 50, the “Wheat plant response rating” value [3, 19] was 10 and the “Wheat plant response rating” value [3, 20] was 80. The “Plant response rating, Corn” value ([4]; Postemergence, 125 g ai/ha) was 0, the “Corn plant response rating” value [4, 18] was 60 and the “Corn plant response rating” value [4, 19] was 0. The “Corn plant response rating” value [4, 20] was 60, the “Ryegrass, Italian plant response rating” value [5, 21] was 50 and the “Ryegrass, Italian plant response rating” value [5, 22] was 55. The “Plant response rating, Ryegrass, Italian” value ([5]; Preemergence) was 0, the “Ryegrass, Italian plant response rating” value [5, 23] was 60 and the “Surinam Grass plant response rating” value [6, 21] was 80. The “Surinam Grass plant response rating” value [6, 22] was 90, the “Plant response rating, Surinam Grass” value ([6]; Preemergence) was 0 and the “Surinam Grass plant response rating” value [6, 23] was 95. For the same molecule, the “Corn plant response rating” value [7, 21] was 0, the “Corn plant response rating” value [7, 22] was 65 and the “Plant response rating, Corn” value ([7]; Preemergence) was 0. For the same molecule, the “Corn plant response rating” value [7, 23] was 95, the “Crabgrass, Large plant response rating” value [8, 21] was 98 and the “Crabgrass, Large plant response rating” value [8, 22] was 100. The “Plant response rating, Crabgrass, Large” value ([8]; Preemergence) was 90, the “Crabgrass, Large plant response rating” value [8, 23] was 100 and the “Foxtail, Giant plant response rating” value [9, 21] was 95. The “Foxtail, Giant plant response rating” value [9, 22] was 100, the “Plant response rating, Foxtail, Giant” value ([9]; Preemergence) was 55 and the “Foxtail, Giant plant response rating” value [9, 23] was 100. For the same molecule, the “Goosegrass plant response rating” value [10, 21] was 100, the “Goosegrass plant response rating” value [10, 22] was 100 and the “Plant response rating, Goosegrass” value ([10]; Preemergence) was 50. The “Goosegrass plant response rating” value [10, 23] was 100, the “Johnsongrass plant response rating” value [11, 21] was 100 and the “Johnsongrass plant response rating” value [11, 22] was 100. For the same molecule, the “Plant response rating, Johnsongrass” value ([11]; Preemergence) was 30, the “Johnsongrass plant response rating” value [11, 23] was 100 and the “Morningglory plant response rating” value [12, 21] was 55. For the same molecule, the “Morningglory plant response rating” value [12, 22] was 80, the “Plant response rating, Morningglory” value ([12]; Preemergence) was 0 and the “Morningglory plant response rating” value [12, 23] was 98. The “Nightshade plant response rating” value [13, 21] was 90, the “Nightshade plant response rating” value [13, 22] was 90 and the “Plant response rating, Nightshade” value ([13]; Preemergence) was 90. The “Nightshade plant response rating” value [13, 23] was 98, the “Pigweed plant response rating” value [14, 21] was 100 and the “Pigweed plant response rating” value [14, 22] was 100. The “Plant response rating, Pigweed” value ([14]; Preemergence) was 60, the “Pigweed plant response rating” value [14, 23] was 100 and the “Sunflower plant response rating” value [15, 21] was 35. For the same molecule, the “Sunflower plant response rating” value [15, 22] was 50, the “Plant response rating, Sunflower” value ([15]; Preemergence) was 35 and the “Sunflower plant response rating” value [15, 23] was 90. The “Velvetleaf plant response rating” value [16, 21] was 55, the “Velvetleaf plant response rating” value [16, 22] was 80 and the “Plant response rating, Velvetleaf” value ([16]; Preemergence) was 0. The “Velvetleaf plant response rating” value [16, 23] was 100, the “Plant response rating, Sedge, Umbrella” value [17, 24] was 0 and the “Plant response rating, Sedge, Umbrella” value [17, 25] was 55.
With Cn1nc(C(F)(F)C(F)(F)F)c(C[S+]([O-])c2ccc(Cl)c[n+]2[O-])c1OCC(F)(F)F (stereo not drawn) [Compound 92] the “Plant response rating, Barnyardgrass” value ([1]; Postemergence, 125 g ai/ha) was 70, the “Barnyardgrass plant response rating” value [1, 18] was 90 and the “Barnyardgrass plant response rating” value [1, 19] was 60. The “Plant response rating, Barnyardgrass” value ([1]; Preemergence, 500 g ai/ha) was 90, the “Plant response rating, Crabgrass, Large” value ([2]; Postemergence, 125 g ai/ha) was 70 and the “Crabgrass, Large plant response rating” value [2, 18] was 90. For the same molecule, the “Crabgrass, Large plant response rating” value [2, 19] was 80, the “Plant response rating, Crabgrass, Large” value ([2]; Preemergence, 500 g ai/ha) was 90 and the “Plant response rating, Wheat” value ([3]; Postemergence, 125 g ai/ha) was 70. The “Wheat plant response rating” value [3, 18] was 70, the “Wheat plant response rating” value [3, 19] was 70 and the “Wheat plant response rating” value [3, 20] was 90. The “Plant response rating, Corn” value ([4]; Postemergence, 125 g ai/ha) was 70, the “Corn plant response rating” value [4, 18] was 80 and the “Corn plant response rating” value [4, 19] was 60. The “Plant response rating, Corn” value ([4]; Preemergence, 500 g ai/ha) was 90, the “Ryegrass, Italian plant response rating” value [5, 21] was 80 and the “Ryegrass, Italian plant response rating” value [5, 22] was 100. The “Plant response rating, Ryegrass, Italian” value ([5]; Preemergence) was 60, the “Ryegrass, Italian plant response rating” value [5, 23] was 100 and the “Surinam Grass plant response rating” value [6, 21] was 98. For the same molecule, the “Surinam Grass plant response rating” value [6, 22] was 100, the “Plant response rating, Surinam Grass” value ([6]; Preemergence) was 70 and the “Surinam Grass plant response rating” value [6, 23] was 100. The “Corn plant response rating” value [7, 21] was 95, the “Corn plant response rating” value [7, 22] was 98 and the “Plant response rating, Corn” value ([7]; Preemergence) was 75. The “Corn plant response rating” value [7, 23] was 98, the “Crabgrass, Large plant response rating” value [8, 21] was 98 and the “Crabgrass, Large plant response rating” value [8, 22] was 100. The “Plant response rating, Crabgrass, Large” value ([8]; Preemergence) was 95, the “Crabgrass, Large plant response rating” value [8, 23] was 100 and the “Foxtail, Giant plant response rating” value [9, 21] was 100. The “Foxtail, Giant plant response rating” value [9, 22] was 100, the “Plant response rating, Foxtail, Giant” value ([9]; Preemergence) was 98 and the “Foxtail, Giant plant response rating” value [9, 23] was 100. For the same molecule, the “Goosegrass plant response rating” value [10, 21] was 90, the “Goosegrass plant response rating” value [10, 22] was 90 and the “Plant response rating, Goosegrass” value ([10]; Preemergence) was 90. For the same molecule, the “Goosegrass plant response rating” value [10, 23] was 100, the “Johnsongrass plant response rating” value [11, 21] was 98 and the “Johnsongrass plant response rating” value [11, 22] was 100. For the same molecule, the “Plant response rating, Johnsongrass” value ([11]; Preemergence) was 80, the “Johnsongrass plant response rating” value [11, 23] was 100 and the “Morningglory plant response rating” value [12, 21] was 80. The “Morningglory plant response rating” value [12, 22] was 85, the “Plant response rating, Morningglory” value ([12]; Preemergence) was 0 and the “Morningglory plant response rating” value [12, 23] was 100. The “Nightshade plant response rating” value [13, 21] was 80, the “Nightshade plant response rating” value [13, 22] was 100 and the “Plant response rating, Nightshade” value ([13]; Preemergence) was 60. For the same molecule, the “Nightshade plant response rating” value [13, 23] was 100, the “Pigweed plant response rating” value [14, 21] was 100 and the “Pigweed plant response rating” value [14, 22] was 100. For the same molecule, the “Plant response rating, Pigweed” value ([14]; Preemergence) was 80, the “Pigweed plant response rating” value [14, 23] was 100 and the “Sunflower plant response rating” value [15, 21] was 35. The “Sunflower plant response rating” value [15, 22] was 70, the “Plant response rating, Sunflower” value ([15]; Preemergence) was 0 and the “Sunflower plant response rating” value [15, 23] was 85. For the same molecule, the “Velvetleaf plant response rating” value [16, 21] was 50, the “Velvetleaf plant response rating” value [16, 22] was 100 and the “Plant response rating, Velvetleaf” value ([16]; Preemergence) was 50. The “Velvetleaf plant response rating” value [16, 23] was 100, the “Plant response rating, Sedge, Umbrella” value [17, 24] was 20 and the “Plant response rating, Sedge, Umbrella” value [17, 25] was 100.
